Measurements taken from patent publication US20060003410A1, “Prostaglandin reductase” (priority 2004, published 2006).

Columns and labels:
[1] = biological target: T1, recombinant mouse PGR-2 protein (Mus musculus, UniProt Q8VDQ1); test: Substrate specificity of PGR-2 (NADPH consumption, absorbance at 490 nm); format: biochemical; settings: 10 μg recombinant mouse PGR-2, 0.5 mM NADPH, substrate replacing 15-keto PGE2, 37° C., 10 minutes
T1 construct: The coding region of PGR-2 open reading frame was then subcloned to the expression vector pCMV-Tag2B; GST (N); made in house; host or cells: E. coli (pGEX-4T-3 vector)
Procedure: (§1) Mouse PGR-2 was recombinantly expressed in E.coli as a GST fusion protein following standard procedures. The recombinant PGR-2 protein thus obtained was used to determine substrate specificity and enzymatic kinetics.
(§2) Enzymatic activity was determined as follows. 10 μg of the recombinant mouse PGR-2 protein was incubated at 37° C. in a reaction buffer containing 0.1M Tris-HCl (pH7.4), 0.5 mM NADPH, and 0.57 mM 15-keto PGE2. The reaction was conducted at 37° C. in the dark for 10 minutes and terminated by adding 700 μl of a buffer which contained 50 mM potassium hydrogen phthalate, pH 3.0, and 1% Tween 20. 200 μl of a color development reagent, which contained 790 μM indonitrotetrazolium chloride, 60 μM phenazene methosulfate, and 1% Tween 20, was added to oxidize any unreacted NADPH. Absorbance at 490 nm was measured by an ELISA plate reader. A standard curve was generated using reaction buffers containing serially diluted amounts of NADPH.
Substrate specificity of PGR-2 was determined using the just-described procedure, except that 15-keto PGE2 was replaced with each of six prostaglandin substrates, each of three downstream metabolites, or leukotriene B4.

endogenous PPAR = test: Reporter gene assay of endogenous PPAR activity in differentiating 3T3-L1 cells; format: cell-based, mouse; settings: 3T3-L1 cells induced to differentiate for two days, transfected with a reporter gene
Procedure: (§3) The effect of prostaglandin on PPAR-gamma activity in adipocytes was investigated. After treatment with a medium that induces cell differentiation, 3T3-L1 cells were treated from day 2 to 4 during adipogenesis with 14 μM 15-keto PGE2, 13,14-dihydro-15-keto PGE2 , 15-keto PGF2α, 13,14-dihydro-15-keto PGF2α, or 4.5 μm of BRL49653, a PPAR-gamma agonist. See Forman et al., Cell (1995) 83:803-812. At day 6, aggregates of lipid droplets were stained with oil-red O for observation. […] After being induced to differentiate for two days, the 3T3-L1 cells were transfected with a reporter gene.

PPAR-alpha = biological target: T2, PPAR-alpha (Homo sapiens, UniProt Q07869); test: Luciferase reporter with PPAR-alpha ligand-binding domain fused to yeast GAL4 DNA-binding domain in 3T3-L1 cells; format: cell-based; settings: compared with PPAR-gamma
T2 construct: expressed in transfected cells; host or cells: 3T3-L1 cells
T2 sequence (Q07869 239-466 limits assumed): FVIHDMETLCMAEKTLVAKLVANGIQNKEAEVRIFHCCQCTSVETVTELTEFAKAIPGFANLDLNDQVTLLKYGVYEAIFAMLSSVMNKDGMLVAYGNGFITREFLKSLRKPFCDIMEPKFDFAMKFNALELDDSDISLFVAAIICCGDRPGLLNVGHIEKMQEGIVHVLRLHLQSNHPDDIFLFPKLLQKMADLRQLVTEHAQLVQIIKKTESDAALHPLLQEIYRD
Source text: (§4) A luciferase reporter gene was transfected to 3T3-L1 cells together with the ligand-binding domain of PPAR-alpha, PPAR-gamma or PPAR-delta fused to a yeast GAL4 DNA-binding domain.

3T3-L1 cells [2] = test: Adipogenesis in 3T3-L1 cells, lipid droplets stained with oil-red O; format: cell-based, mouse; settings: 14 μM, treated day 2 to 4 during adipogenesis, stained at day 6
Procedure: as §3

PPAR-gamma = test: Luciferase reporter with PPAR-gamma ligand-binding domain fused to yeast GAL4 DNA-binding domain in 3T3-L1 cells; format: cell-based
Source text: as §4

3T3-L1 cells [3] = test: Protein expression of adipogenesis-specific, PPAR-gamma target genes in 3T3-L1 cells; format: cell-based, mouse; settings: for IRS-1 protein expression: 3T3-L1 cells
Source text: Also examined was the ability of 15-keto PGE2 to induce protein expression of adipogenesis-specific, PPAR-gamma target genes, i.e., IRS-1 and -2.

[4] = biological target: T1, recombinant mouse PGR-2 protein; test: Kinetics studies of PGR-2 catalyzed conversion; format: biochemical; settings: order: 15-keto PGE2, then 15-keto PGF1α, 15-keto PGE1, 15-keto PGF2α
Procedure: as §1, §2
Unlike PGR/LTB4DH, PGR-2 used NADPH as a cofactor much more efficiently than NADH.

T1 sequence (Q8VDQ1 whole entry): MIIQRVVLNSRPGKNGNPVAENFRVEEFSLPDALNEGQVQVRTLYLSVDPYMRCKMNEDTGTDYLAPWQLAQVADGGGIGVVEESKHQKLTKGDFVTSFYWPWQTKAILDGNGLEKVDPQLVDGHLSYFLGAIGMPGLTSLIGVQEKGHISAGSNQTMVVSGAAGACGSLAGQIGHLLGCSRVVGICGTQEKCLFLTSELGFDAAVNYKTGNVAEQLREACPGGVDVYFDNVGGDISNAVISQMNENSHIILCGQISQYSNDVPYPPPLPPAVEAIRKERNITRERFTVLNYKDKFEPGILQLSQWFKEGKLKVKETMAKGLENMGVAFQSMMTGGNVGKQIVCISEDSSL

Row | SMILES | specific activity with PGR-2 (substrate specificity) [1] | endogenous PPAR activity (reporter gene) (endogenous PPAR) | other results
1 | CCCCC[C@H](O)/C=C/[C@@H]1[C@@H](CC(=O)CCCCC(=O)O)[C@@H](O)C[C@H]1O [6-keto PGF1α] | no specific activity was detected | – | –
2 | CCCCC[C@H](O)/C=C/[C@@H]1[C@@H](C/C=C\CCCC(=O)O)[C@@H](O)C[C@@H]1O [11b-PGF2α] | no specific activity was detected | – | –
3 | CCCCCC(=O)CCC1C(=O)CC(O)C1C/C=C\CCCC(=O)O (stereo not shown) [13,14-dihydro-15-keto PGD2] | no specific activity was detected | – | –
4 | CCCCCC(=O)CC[C@H]1[C@H](O)CC(=O)[C@@H]1C/C=C\CCCC(=O)O [13,14-dihydro-15-keto PGE2] | no specific activity was detected | failed to increase PPAR activity | –
5 | CCCCCC(=O)CC[C@@H]1[C@@H](C/C=C\CCCC(=O)O)[C@@H](O)C[C@H]1O [13,14-dihydro-15-keto PGF2α] | no specific activity was detected | failed to increase PPAR activity | –
6 | CCCCCC(=O)/C=C/[C@H]1[C@H](O)CC(=O)[C@@H]1CCCCCCC(=O)O [15-keto PGE1] | reacted specifically with PGR-2 | – | –
7 | CCCCCC(=O)/C=C/[C@H]1[C@H](O)CC(=O)[C@@H]1C/C=C\CCCC(=O)O [15-keto PGE2] | – | enhanced endogenous PPAR activity significantly | activation of PPAR-alpha (GAL4 fusion, luciferase reporter) (PPAR-alpha): to a lesser degree; adipogenesis (aggregates of lipid droplets, oil-red O) (3T3-L1 cells [2]): effectively enhanced adipogenesis at a level similar to BRL49653; activation of PPAR-gamma (GAL4 fusion, luciferase reporter) (PPAR-gamma): activated; IRS-1 protein expression (3T3-L1 cells [3]): did not increase; PPAR-gamma1 and PPAR-gamma2 protein expression (3T3-L1 cells [3]; added with MIX, insulin and dexamethasone): significantly enhanced; expression of aP2, an adipocyte-specific marker (3T3-L1 cells [3]; even in the absence of MIX): strongly induced; IRS-2 expression (3T3-L1 cells [3]; in the presence of insulin and dexamethasone): enhanced the expression to a level similar to MIX; efficiency of PGR-2 catalyzed conversion (rank order) [4]: most efficiently
8 | CCCCCC(=O)/C=C/[C@@H]1[C@@H](CCCCCCC(=O)O)[C@@H](O)C[C@H]1O [15-keto PGF1α] | reacted specifically with PGR-2 | – | –
9 | CCCCCC(=O)/C=C/[C@@H]1[C@@H](C/C=C\CCCC(=O)O)[C@@H](O)C[C@H]1O [15-keto PGF2α] | reacted specifically with PGR-2 | enhanced endogenous PPAR activity significantly | activation of PPAR-alpha (GAL4 fusion, luciferase reporter) (PPAR-alpha): to a lesser degree; activation of PPAR-gamma (GAL4 fusion, luciferase reporter) (PPAR-gamma): activated
10 | CC(C)Cn1c(=O)n(C)c(=O)c2[nH]cnc21 [MIX, methylisobutylxanthine] | – | – | IRS-1 protein expression (3T3-L1 cells [3]): induced IRS-1 expression
11 | CCCCC[C@H](O)/C=C/[C@@H]1[C@@H](C/C=C\CCCC(=O)O)[C@H](O)C[C@H]1O [PGF2β] | no specific activity was detected | – | –
12 | CCCCC/C=C\C[C@@H](O)/C=C/C=C/C=C\[C@@H](O)CCCC(=O)O [leukotriene B4] | no specific activity was detected | – | –
